# Assay results published in patent US11891365B2, “3-alkyl-4-amido-bicyclic [4,5,0] hydroxamic acids as HDAC inhibitors” (Valo Health, Inc., priority 2015, dated 2024).
# Molecular target: T1, Full length human recombinant HDAC6 protein (Homo sapiens, UniProt Q9UBN7)
# T1 sequence (Q9UBN7 1-1215): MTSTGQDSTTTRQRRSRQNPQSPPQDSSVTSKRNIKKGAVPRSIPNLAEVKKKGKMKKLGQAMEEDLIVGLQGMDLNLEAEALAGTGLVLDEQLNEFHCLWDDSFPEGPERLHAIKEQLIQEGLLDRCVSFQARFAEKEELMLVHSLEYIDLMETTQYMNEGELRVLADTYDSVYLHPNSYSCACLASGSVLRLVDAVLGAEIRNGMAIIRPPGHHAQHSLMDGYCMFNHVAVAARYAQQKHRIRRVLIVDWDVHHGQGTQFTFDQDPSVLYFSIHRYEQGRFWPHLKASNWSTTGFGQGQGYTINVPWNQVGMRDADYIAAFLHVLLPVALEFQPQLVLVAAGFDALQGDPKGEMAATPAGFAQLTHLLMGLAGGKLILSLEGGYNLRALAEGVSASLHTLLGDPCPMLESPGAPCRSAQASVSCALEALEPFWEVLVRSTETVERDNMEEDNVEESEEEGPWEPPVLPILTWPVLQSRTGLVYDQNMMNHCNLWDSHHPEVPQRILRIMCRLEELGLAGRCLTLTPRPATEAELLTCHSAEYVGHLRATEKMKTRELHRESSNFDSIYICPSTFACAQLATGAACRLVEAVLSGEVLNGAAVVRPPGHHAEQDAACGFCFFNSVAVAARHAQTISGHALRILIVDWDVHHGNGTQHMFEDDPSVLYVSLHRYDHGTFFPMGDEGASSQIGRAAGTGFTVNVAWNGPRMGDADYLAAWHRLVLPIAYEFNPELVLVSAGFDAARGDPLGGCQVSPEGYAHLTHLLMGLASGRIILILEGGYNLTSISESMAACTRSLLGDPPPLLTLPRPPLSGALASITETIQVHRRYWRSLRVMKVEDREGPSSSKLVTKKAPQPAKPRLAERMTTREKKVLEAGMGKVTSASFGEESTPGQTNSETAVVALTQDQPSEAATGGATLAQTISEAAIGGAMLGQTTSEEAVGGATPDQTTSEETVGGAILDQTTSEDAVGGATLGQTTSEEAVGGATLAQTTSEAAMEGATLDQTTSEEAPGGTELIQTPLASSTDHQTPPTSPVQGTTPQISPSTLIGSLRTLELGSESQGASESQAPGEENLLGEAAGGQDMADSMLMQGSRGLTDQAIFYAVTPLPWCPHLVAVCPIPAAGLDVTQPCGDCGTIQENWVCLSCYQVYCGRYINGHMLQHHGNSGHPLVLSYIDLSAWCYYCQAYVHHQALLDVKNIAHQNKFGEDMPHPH
# Test: In vitro histone deacetylase assay: enzymatic HDAC6 electrophoretic mobility shift assay
# Assay type: biochemical
# Conditions: 1 nM enzyme, 2 μM peptide substrate RHKK(Ac)-NH2, 25° C., 12 concentrations; read-out: Inhibitory Concentration (IC50) Values against HDAC6, Activity Range
row,IC50 [nM],SMILES
1,100 to 500,"O=C(NO)c1ccc2c(c1)OCCN(C(=O)Cc1cc(C(F)(F)F)cc(C(F)(F)F)c1)C2 [4-(2-(3,5-bis(trifluoromethyl)phenyl)acetyl)-N-hydroxy-2,3,4,5-tetrahydrobenzo[f][1,4]oxazepine-8-carboxamide]"
2,100 to 500,"CC1(C(=O)N2Cc3ccc(C(=O)NO)cc3O[C@H](c3ccccc3)C2)CCC1 [(R)-N-hydroxy-4-(1-methylcyclobutane-1-carbonyl)-2-phenyl-2,3,4,5-tetrahydrobenzo[f][1,4]oxazepine-8-carboxamide]"
3,≤ 100,"COCC1(C(=O)N2Cc3ccc(C(=O)NO)cc3OC[C@@H]2C)CCOCC1 [(S)-N-hydroxy-4-(4-(methoxymethyl)tetrahydro-2H-pyran-4-carbonyl)-3-methyl-2,3,4,5-tetrahydrobenzo[f][1,4]oxazepine-8-carboxamide]"
4,100 to 500,"O=C(NO)c1ccc2c(c1)OCCN(C(=O)C1Oc3ccccc3C13CCNCC3)C2 (stereo not drawn) [N-hydroxy-4-(2H-spiro[benzofuran-3,4′-piperidine]-2-carbonyl)-2,3,4,5-tetrahydrobenzo[f][1,4]oxazepine-8-carboxamide]"
5,≤ 100,"CO[C@H]1CC[C@H](C(=O)N2CCOc3cc(C(=O)NO)ccc3[C@@H]2C)CC1 (single isomer, unassigned)"
6,100 to 500,"C[C@H](C(=O)N1CCOc2cc(C(=O)NO)ccc2C1)c1ccccc1 [(S)-N-hydroxy-4-(2-phenylpropanoyl)-2,3,4,5-tetrahydrobenzo[f][1,4]oxazepine-8-carboxamide]"
7,100 to 500,"Cc1cccc(C)c1C(=O)N1CCOc2cc(C(=O)NO)ccc2C1 [4-(2,6-dimethylbenzoyl)-N-hydroxy-2,3,4,5-tetrahydrobenzo[f][1,4]oxazepine-8-carboxamide]"
8,≤ 100,"C[C@H]1COc2cc(C(=O)NO)ccc2CN1C(=O)C(C)(C)c1ccc(F)cc1 [(S)-4-(2-(4-fluorophenyl)-2-methylpropanoyl)-N-hydroxy-3-methyl-2,3,4,5-tetrahydrobenzo[f][1,4]oxazepine-8-carboxamide]"
9,100 to 500,"CC(C)(C)OC(=O)N1CCC2(CCC(C(=O)N3CCOc4cc(C(=O)NO)ccc4C3)C2)CC1 (stereo not drawn) [tert-butyl 2-(8-(hydroxycarbamoyl)-2,3,4,5-tetrahydrobenzo[f][1,4]oxazepine-4-carbonyl)-8-azaspiro[4.5]decane-8-carboxylate]"
10,≤ 100,"O=CN1Cc2ccc(C(=O)NO)cc2O[C@@H](c2ccccc2)C1 [(S)-4-formyl-N-hydroxy-2-phenyl-2,3,4,5-tetrahydrobenzo[f][1,4]oxazepine-8-carboxamide]"
11,100 to 500,"O=C(NO)c1ccc2c(c1)OCCN(C(=O)C1(c3ccccc3)CCOCC1)C2 [N-hydroxy-4-(4-phenyltetrahydro-2H-pyran-4-carbonyl)-2,3,4,5-tetrahydrobenzo[f][1,4]oxazepine-8-carboxamide]"
12,≤ 100,"C[C@H]1COc2cc(C(=O)NO)ccc2CN1C(=O)C1CC(Oc2ccccc2)C1 (single isomer, unassigned)"
13,≤ 100,"CCC(=O)N1Cc2ccc(C(=O)NO)cc2OC[C@@H]1C [(S)-N-hydroxy-3-methyl-4-propionyl-2,3,4,5-tetrahydrobenzo[f][1,4]oxazepine-8-carboxamide]"
14,≤ 100,"O=C(NO)c1ccc2c(c1)OCCN(C(=O)C1(c3ccc(Cl)cc3)CC1)C2 [4-(1-(4-chlorophenyl)cyclopropane-1-carbonyl)-N-hydroxy-2,3,4,5-tetrahydrobenzo[f][1,4]oxazepine-8-carboxamide]"
15,> 500,"O=C(NO)c1ccc2c(c1)OCC(C1CCOCC1)N(C(=O)C1CCOCC1)C2 (stereo not drawn) [N-hydroxy-4-(tetrahydro-2H-pyran-4-carbonyl)-3-(tetrahydro-2H-pyran-4-yl)-2,3,4,5-tetrahydrobenzo[f][1,4]oxazepine-8-carboxamide]"
16,100 to 500,"COc1cccc(C(C)(C)C(=O)N2CCOc3cc(C(=O)NO)ccc3C2)c1 [N-hydroxy-4-(2-(3-methoxyphenyl)-2-methylpropanoyl)-2,3,4,5-tetrahydrobenzo[f][1,4]oxazepine-8-carboxamide]"
17,100 to 500,"COC[C@H]1CN(C(=O)C2(C)CCC2)Cc2ccc(C(=O)NO)cc2O1 [(R)-N-hydroxy-2-(methoxymethyl)-4-(1-methylcyclobutane-1-carbonyl)-2,3,4,5-tetrahydrobenzo[f][1,4]oxazepine-8-carboxamide]"
18,≤ 100,"CC(C(=O)N1CCOc2cc(C(=O)NO)ccc2C1)c1cccnc1 (stereo not drawn) [N-hydroxy-4-(2-(pyridin-3-yl)propanoyl)-2,3,4,5-tetrahydrobenzo[f][1,4]oxazepine-8-carboxamide]"
19,100 to 500,"CC(C)(C)OC(=O)N1CC2(CC(C(=O)N3CCOc4cc(C(=O)NO)ccc4C3)CS2(=O)=O)C1 (stereo not drawn) [tert-butyl 7-(8-(hydroxycarbamoyl)-2,3,4,5-tetrahydrobenzo[f][1,4]oxazepine-4-carbonyl)-5-thia-2-azaspiro[3.4]octane-2-carboxylate 5,5-dioxide]"

# The next lines start with the compound.
row,SMILES,IC50 [nM]
1,"CS(=O)(=O)N1CCC(CC(=O)N2CCOc3cc(C(=O)NO)ccc3C2)CC1 [N-hydroxy-4-(2-(1-(methylsulfonyl)piperidin-4-yl)acetyl)-2,3,4,5-tetrahydrobenzo[f][1,4]oxazepine-8-carboxamide]",> 500
2,"C[C@H]1COc2cc(C(=O)NO)ccc2CN1C=O [(S)-4-formyl-N-hydroxy-3-methyl-2,3,4,5-tetrahydrobenzo[f][1,4]oxazepine-8-carboxamide]",≤ 100
3,"COC1CCC(C(=O)N2CCOc3cc(C(=O)NO)ccc3C2)CC1 (stereo not drawn) [N-hydroxy-4-(4-methoxycyclohexane-1-carbonyl)-2,3,4,5-tetrahydrobenzo[f][1,4]oxazepine-8-carboxamide]",≤ 100
4,"CC[C@H]1COc2cc(C(=O)NO)ccc2CN1C(=O)C1CCOCC1 [(S)-3-ethyl-N-hydroxy-4-(tetrahydro-2H-pyran-4-carbonyl)-2,3,4,5-tetrahydrobenzo[f][1,4]oxazepine-8-carboxamide]",≤ 100
5,"CC(Oc1ccccc1)C(=O)N1CCOc2cc(C(=O)NO)ccc2C1 (stereo not drawn) [N-hydroxy-4-(2-phenoxypropanoyl)-2,3,4,5-tetrahydrobenzo[f][1,4]oxazepine-8-carboxamide]",100 to 500
6,CO[C@H]1C[C@H](C(=O)N2Cc3ccc(C(=O)NO)cc3OC[C@@H]2C)C1,≤ 100
7,"C[C@H]1COc2cc(C(=O)NO)ccc2CN1C(=O)[C@H]1CCCOC1 [(S)-N-hydroxy-3-methyl-4-((S)-tetrahydro-2H-pyran-3-carbonyl)-2,3,4,5-tetrahydrobenzo[f][1,4]oxazepine-8-carboxamide]",≤ 100
8,"CC(=O)N1Cc2ccc(C(=O)NO)cc2OC[C@H]1C(C)C [(R)-4-acetyl-N-hydroxy-3-isopropyl-2,3,4,5-tetrahydrobenzo[f][1,4]oxazepine-8-carboxamide]",100 to 500
9,"CC(C)(C)OC(C(=O)N1CCOc2cc(C(=O)NO)ccc2C1)c1ccccc1 (stereo not drawn) [4-(2-(tert-butoxy)-2-phenylacetyl)-N-hydroxy-2,3,4,5-tetrahydrobenzo[f][1,4]oxazepine-8-carboxamide]",100 to 500
10,"C[C@H]1COc2cc(C(=O)NO)ccc2CN1C(=O)C1CCS(=O)(=O)CC1 [(S)-4-(1,1-dioxidotetrahydro-2H-thiopyran-4-carbonyl)-N-hydroxy-3-methyl-2,3,4,5-tetrahydrobenzo[f][1,4]oxazepine-8-carboxamide]",≤ 100
11,"Cc1ccn(C(C)(C)C(=O)N2CCOc3cc(C(=O)NO)ccc3C2)n1 [N-hydroxy-4-(2-methyl-2-(3-methyl-1H-pyrazol-1-yl)propanoyl)-2,3,4,5-tetrahydrobenzo[f][1,4]oxazepine-8-carboxamide]",≤ 100
12,"O=C(NO)c1ccc2c(c1)OCCN(C(=O)C(O)(c1ccccc1)C1CCCC1)C2 (stereo not drawn) [4-(2-cyclopentyl-2-hydroxy-2-phenylacetyl)-N-hydroxy-2,3,4,5-tetrahydrobenzo[f][1,4]oxazepine-8-carboxamide]",> 500
13,"C[C@@H](C(=O)N1CCOc2cc(C(=O)NO)ccc2C1)c1ccccc1 [(R)-N-hydroxy-4-(2-phenylpropanoyl)-2,3,4,5-tetrahydrobenzo[f][1,4]oxazepine-8-carboxamide]",> 500
14,"CC(C)[C@H]1COc2cc(C(=O)NO)ccc2CN1C(=O)C1(C)CCC1 [(S)-N-hydroxy-3-isopropyl-4-(1-methylcyclobutane-1-carbonyl)-2,3,4,5-tetrahydrobenzo[f][1,4]oxazepine-8-carboxamide]",≤ 100
